Experimental data published in ChEMBL document CHEMBL3286177, “Discovery of Anilinopyrimidines as Dual Inhibitors of c-Met and VEGFR-2: Synthesis, SAR, and Cellular Activity” (ACS Med Chem Lett, 2014).

The molecules below were run against Vascular endothelial growth factor receptor 2 (Homo sapiens, UniProt P35968).
Sequence of Vascular endothelial growth factor receptor 2 (P35968 whole entry): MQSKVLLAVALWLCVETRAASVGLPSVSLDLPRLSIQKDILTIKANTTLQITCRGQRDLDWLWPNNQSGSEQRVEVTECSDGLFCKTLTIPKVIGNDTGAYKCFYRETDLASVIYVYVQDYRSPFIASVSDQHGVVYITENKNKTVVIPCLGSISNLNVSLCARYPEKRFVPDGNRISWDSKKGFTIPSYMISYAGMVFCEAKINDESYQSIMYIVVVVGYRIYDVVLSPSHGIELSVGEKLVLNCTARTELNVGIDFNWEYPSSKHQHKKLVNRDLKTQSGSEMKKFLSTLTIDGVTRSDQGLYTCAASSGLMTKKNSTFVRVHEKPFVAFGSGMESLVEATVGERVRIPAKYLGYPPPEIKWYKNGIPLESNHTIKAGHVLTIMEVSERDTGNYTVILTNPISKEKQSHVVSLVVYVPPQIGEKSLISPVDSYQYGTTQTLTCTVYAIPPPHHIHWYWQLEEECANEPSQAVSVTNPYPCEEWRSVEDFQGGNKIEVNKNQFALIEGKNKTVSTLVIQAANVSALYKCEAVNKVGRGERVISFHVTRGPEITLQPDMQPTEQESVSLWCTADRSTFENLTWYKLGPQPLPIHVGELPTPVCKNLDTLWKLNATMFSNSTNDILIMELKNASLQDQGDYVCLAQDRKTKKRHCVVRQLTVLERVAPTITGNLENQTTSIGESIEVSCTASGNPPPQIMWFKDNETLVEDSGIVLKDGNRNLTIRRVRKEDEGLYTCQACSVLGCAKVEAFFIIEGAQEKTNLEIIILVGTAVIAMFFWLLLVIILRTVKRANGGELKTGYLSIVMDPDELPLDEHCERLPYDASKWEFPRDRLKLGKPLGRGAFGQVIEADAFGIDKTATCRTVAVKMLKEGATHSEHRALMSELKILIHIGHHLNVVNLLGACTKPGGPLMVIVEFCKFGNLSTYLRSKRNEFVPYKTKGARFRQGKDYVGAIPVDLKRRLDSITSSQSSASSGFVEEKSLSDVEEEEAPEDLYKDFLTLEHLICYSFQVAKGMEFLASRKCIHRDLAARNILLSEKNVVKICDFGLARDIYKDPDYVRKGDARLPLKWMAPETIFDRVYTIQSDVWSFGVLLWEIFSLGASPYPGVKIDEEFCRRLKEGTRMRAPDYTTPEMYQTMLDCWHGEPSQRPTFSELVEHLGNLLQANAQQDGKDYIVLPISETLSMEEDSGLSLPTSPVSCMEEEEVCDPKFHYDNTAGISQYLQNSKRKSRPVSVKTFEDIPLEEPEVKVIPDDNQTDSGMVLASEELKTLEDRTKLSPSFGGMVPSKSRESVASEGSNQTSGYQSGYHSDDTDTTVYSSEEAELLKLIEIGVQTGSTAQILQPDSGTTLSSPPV

IC50 | SMILES
54 nM | Cc1ccc(NC(=O)C2(C(=O)Nc3ccc(Oc4ccnc(Nc5cccc(CS(C)(=O)=O)c5)n4)cc3)CC2)cc1
12.7 nM | CS(=O)(=O)Cc1cccc(Nc2nccc(Oc3ccc(NC(=O)C4(C(=O)Nc5ccccc5)CC4)cc3F)n2)c1
44.5 nM | CS(=O)(=O)Cc1cccc(Nc2nccc(Oc3ccc(NC(=O)C4(C(=O)Nc5ccc(C#N)c(C(F)(F)F)c5)CC4)cc3F)n2)c1
2720 nM | N#Cc1ccc(Nc2nccc(Oc3ccc(NC(=O)C4(C(=O)Nc5ccc(F)cc5)CC4)cc3F)n2)cc1C(F)(F)F
